# Experimental data taken from patent publication US9624502B2, “Methods of controlling plant seed and organ size” (PLANT BIOSCIENCE LIMITED, priority 2007, dated 2017).
# Where a SMILES comes first, the peptide text is derived from it. The star is where a group is joined. Cbz = O=C(OCc1ccccc1)*
# Tests used:
# proteasome = assay: Stability of DA1 protein in cell-free Arabidopsis protein extracts with ATP, Western analysis; assay type: biochemical; details: GST-DA1 incubated with Arabidopsis protein extracts and ATP; Western with DA1 antibody
# Description: This is supported by the observation that detection of DA1 protein with a good specific antibody in plant extracts is very difficult. We therefore tested the stability of DA1 protein in Arabidopsis using DA1 protein expressed in E. coli and cell-free protein extracts from Arabidopsis. Full length DA1 protein expressed and purified as an N-terminal GST fusion protein, was incubated with Arabidopsis protein extracts and ATP, and subjected to Western analysis using a specific DA1 antibody. […] The UIM motifs of DA1 are predicted, based on knowledge of UIM function in animal cells, to be involved in ubiqutination. It may be that DA1 is ubiquitinated and targeted for degradation as part of the mechanism of growth control.
# DA1 gene = DA1 gene expression after phytohormone treatment, quantitative RT-PCR; assay type: in vivo, Arabidopsis thaliana
# Excerpt: (§1) (A) DA1 gene structure, showing the mutated sites of da1-1, sod1-1, sod1-2, and sod1-3 alleles. The start codon (ATG) and the stop codon (TGA) are indicated. Closed boxes indicate the coding sequence and lines between boxes indicate introns. T-DNA insertion sites (da1-ko1, da1-ko2 and da1-ko3) in DA1 gene are shown. (B to G) DA1 promoter activity monitored by pDA1::GUS transgene expression. GUS staining in seedlings (B and C), an embryo (D), roots (E), and petals (F and G). (H and I) The flowers of Col-0 (H) and da1-ko1dar1-1 double mutant (I). (J) Siliques of Col-0 (left) and da1-ko1dar1-1 double mutant (right). (K) Petal area of Col-0, da1-ko1, dar1-1, da1-ko1dar1-1 double mutants. […] 7 d-old WT seedlings were treated with 10 μm ABA for 2, 4, 6, 18 and 30 hours. (M and N) Wild type Col-0 and da1-1 seeds were grown on MS medium with 2 μm ABA under constant light conditions. […] Scale bars: 1 mm (B, H, I, M, and N), 50 μm (C and E), 0.5 mm (C and J), 0.1 mm (F and G), 0.5 cm (0).
# (§2) Relatively high levels of GUS activity were detected in proliferating tissues (FIG. 3c-f). In addition, the DA1 promoter is also active in roots (FIG. 3b, c). Given the effects of hormones on organ growth, we tested whether any major classes of phytohormones (abscisic acid, jasmonic acid, ethylene, auxin, cytokinin, gibberellin, brassinosteroids and glucose) could influence transcription of DA1 gene. […]
# [1] = tested on: wild type Col-0 seedlings; assay: Seedling growth on MS medium with ABA, wild type; assay type: in vivo, Arabidopsis thaliana; details: 4 d-old seedlings transferred to MS medium with 5 μm ABA for 3 weeks
# Excerpt: as §1
# da1-1 mutant seedlings = assay: Seedling establishment and growth on MS medium with ABA, da1-1 mutant; assay type: in vivo, Arabidopsis thaliana
# Excerpt: as §1, §2
Structure (SMILES),effect on degradation of DA1 protein (proteasome),"expression of DA1 (DA1 gene; 7 d-old WT seedlings treated with 10 μm ABA for 2, 4, 6, 18 and 30 hours, quantitative RT-PCR)",expression level of the DA1 gene (transcription) after phytohormone treatment (DA1 gene; major classes of phytohormones tested),growth of wild type Col-0 seedlings [1],growth of da1-1 mutant seedlings (da1-1 mutant seedlings; 4 d-old seedlings transferred to MS medium with 5 μm ABA for 3 weeks),seedling establishment of da1-1 mutant (da1-1 mutant seedlings; seeds grown on MS medium with 2 μm ABA under constant light)
CC(C)C[C@@H](C=O)NC(=O)[C@H](CC(C)C)NC(=O)[C@H](CC(C)C)NC(=O)OCc1ccccc1 [MG132] (Cbz-Leu-Leu-Leu-aldehyde),abolish this degradation,,,,,
"CC1=CC(=O)CC(C)(C)[C@@]1(O)/C=C/C(C)=C\C(=O)O [ABA, abscisic acid]",,slowly induced,induced slowly,inhibit the growth,continue to grow,ABA-insensitive seedling establishment
